Measured values taken from patent publication US10590078B2, “Sodium channel blockers” (Daewoong Pharmaceutical Co., Ltd., priority 2015, dated 2020).
Like-named read-outs stand apart in the source and are kept apart here.

Molecular target: human sodium ion channel 1.7 (hNav1.7) (Homo sapiens, UniProt Q15858)
Test: Blocking effect against sodium ion channel Nav1.7, IonFlux16 auto patch clamp in hNav1.7 HEK293 cells
Assay type: cell-based
[1] = hNav1.7 HEK293 cells, inhibition of peak current after 50 seconds treatment, eight concentrations, read-out: IC50

Chain of human sodium ion channel 1.7 (hNav1.7) (Q15858 whole entry): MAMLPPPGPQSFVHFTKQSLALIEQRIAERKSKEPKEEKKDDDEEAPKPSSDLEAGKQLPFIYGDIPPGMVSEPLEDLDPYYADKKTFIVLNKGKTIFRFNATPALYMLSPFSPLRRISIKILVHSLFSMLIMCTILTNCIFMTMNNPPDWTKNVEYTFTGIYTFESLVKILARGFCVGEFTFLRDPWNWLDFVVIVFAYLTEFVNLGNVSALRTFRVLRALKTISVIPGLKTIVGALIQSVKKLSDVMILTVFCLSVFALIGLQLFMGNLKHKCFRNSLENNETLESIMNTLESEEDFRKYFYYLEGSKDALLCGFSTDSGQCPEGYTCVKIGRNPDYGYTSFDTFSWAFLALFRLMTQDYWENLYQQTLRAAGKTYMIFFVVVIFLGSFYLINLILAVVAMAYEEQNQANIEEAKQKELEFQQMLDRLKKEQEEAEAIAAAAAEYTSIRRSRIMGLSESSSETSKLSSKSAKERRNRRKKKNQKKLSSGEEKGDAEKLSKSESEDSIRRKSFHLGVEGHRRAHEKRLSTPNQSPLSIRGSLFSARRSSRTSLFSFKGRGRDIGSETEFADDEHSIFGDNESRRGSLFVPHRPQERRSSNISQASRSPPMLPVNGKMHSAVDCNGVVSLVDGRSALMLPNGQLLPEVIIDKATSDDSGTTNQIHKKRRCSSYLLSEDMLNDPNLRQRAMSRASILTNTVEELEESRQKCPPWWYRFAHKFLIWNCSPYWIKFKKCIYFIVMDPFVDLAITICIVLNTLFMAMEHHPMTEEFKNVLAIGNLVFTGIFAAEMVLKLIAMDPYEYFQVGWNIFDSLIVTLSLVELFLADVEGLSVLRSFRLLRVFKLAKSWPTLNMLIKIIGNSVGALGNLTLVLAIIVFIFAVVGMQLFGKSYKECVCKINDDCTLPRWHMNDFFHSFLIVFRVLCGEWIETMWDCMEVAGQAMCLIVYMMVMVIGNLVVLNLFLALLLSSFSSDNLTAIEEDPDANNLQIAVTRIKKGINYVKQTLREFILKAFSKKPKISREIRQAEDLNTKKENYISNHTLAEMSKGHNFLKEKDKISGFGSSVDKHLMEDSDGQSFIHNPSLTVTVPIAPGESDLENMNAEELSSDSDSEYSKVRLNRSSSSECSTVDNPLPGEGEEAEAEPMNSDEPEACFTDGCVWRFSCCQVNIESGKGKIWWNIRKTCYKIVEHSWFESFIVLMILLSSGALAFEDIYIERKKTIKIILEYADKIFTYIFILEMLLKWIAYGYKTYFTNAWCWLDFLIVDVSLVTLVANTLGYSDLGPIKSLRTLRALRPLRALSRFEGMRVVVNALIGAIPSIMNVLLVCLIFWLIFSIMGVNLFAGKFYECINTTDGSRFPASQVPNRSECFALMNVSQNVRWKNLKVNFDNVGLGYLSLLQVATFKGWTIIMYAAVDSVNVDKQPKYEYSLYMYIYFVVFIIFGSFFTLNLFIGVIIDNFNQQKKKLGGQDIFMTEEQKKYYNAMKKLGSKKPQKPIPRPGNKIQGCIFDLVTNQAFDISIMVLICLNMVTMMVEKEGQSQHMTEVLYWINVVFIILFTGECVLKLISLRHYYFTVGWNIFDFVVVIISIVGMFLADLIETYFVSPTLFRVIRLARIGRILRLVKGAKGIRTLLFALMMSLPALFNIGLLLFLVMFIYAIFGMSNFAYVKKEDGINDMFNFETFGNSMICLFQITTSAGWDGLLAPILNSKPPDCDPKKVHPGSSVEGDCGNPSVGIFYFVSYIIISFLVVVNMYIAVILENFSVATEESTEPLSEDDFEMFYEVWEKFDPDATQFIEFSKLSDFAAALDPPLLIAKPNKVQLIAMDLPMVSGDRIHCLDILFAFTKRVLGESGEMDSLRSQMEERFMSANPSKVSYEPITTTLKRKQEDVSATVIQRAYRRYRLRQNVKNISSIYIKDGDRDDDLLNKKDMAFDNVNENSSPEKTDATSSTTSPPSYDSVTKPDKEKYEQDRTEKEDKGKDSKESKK

| Structure (SMILES) | IC50 [1] | IC50 |
| --- | --- | --- |
| CS(=O)(=O)NC(=O)c1cc(Cl)c(-n2nc(Cl)c3c(Cl)c(OCc4ccccc4F)ccc32)cc1F [Example 32, 5-chloro-4-(3,4-dichloro-5-((2-fluorobenzyl)oxy)-1H-indazol-1-yl)-2-fluoro-N-(methylsulfonyl)benzamide] | 0.158 µM | – |
| CC(Oc1ccc2c(c1)c(Cl)nn2-c1cc(F)c(C(=O)NS(C)(=O)=O)cc1Cl)c1ccccc1 (centres unmarked) [Example 33, 5-chloro-4-(3-chloro-5-(1-phenylethoxy)-1H-indazol-1-yl)-2-fluoro-N-(methylsulfonyl)benzamide] | 0.214 µM | – |
| CS(=O)(=O)NC(=O)c1cc(Cl)c(-n2nc(Cl)c3cc(OCC4CCCCC4)ccc32)cc1F [Example 34, 5-chloro-4-(3-chloro-5-(cyclohexylmethoxy)-1H-indazol-1-yl)-2-fluoro-N-(methylsulfonyl)benzamide] | 0.211 µM | – |
| CS(=O)(=O)NC(=O)c1cc(Cl)c(-n2nc(Cl)c3cc(OCc4ccc5ccccc5c4)ccc32)cc1F [Example 35, 5-chloro-4-(3-chloro-5-(naphthalen-2-ylmethoxy)-1H-indazol-1-yl)-2-fluoro-N-(methylsulfonyl)benzamide] | 0.076 µM | – |
| CS(=O)(=O)NC(=O)c1cc(Cl)c(-n2nc(Cl)c3cc(OCc4ccc(F)cc4)ccc32)cc1F [Example 36, 5-chloro-4-(3-chloro-5-((4-fluorobenzyl)oxy)-1H-indazol-1-yl)-2-fluoro-N-(methylsulfonyl)benzamide] | 0.087 µM | – |
| CS(=O)(=O)NC(=O)c1cc(Cl)c(-n2nc(Cl)c3cc(OCc4ccccc4F)ccc32)cc1F [Example 37, 5-chloro-4-(3-chloro-5-((2-fluorobenzyl)oxy)-1H-indazol-1-yl)-2-fluoro-N-(methylsulfonyl)benzamide] | 0.159 µM | – |
| CS(=O)(=O)NC(=O)c1cc(Cl)c(-n2nc(Cl)c3cc(OCc4cccc(F)c4)ccc32)cc1F [Example 38, 5-chloro-4-(3-chloro-5-((3-fluorobenzyl)oxy)-1H-indazol-1-yl)-2-fluoro-N-(methylsulfonyl)benzamide] | 0.098 µM | – |
| CC(Oc1ccc2c(c1)c(Cl)nn2-c1cc(F)c(C(=O)NS(C)(=O)=O)cc1Cl)c1ccc(F)cc1 (centres unmarked) [Example 39, 5-chloro-4-(3-chloro-5-(1-(4-fluorophenyl)ethoxy)-1H-indazol-1-yl)-2-fluoro-N-(methylsulfonyl)benzamide] | 0.28 µM | – |
| CS(=O)(=O)NC(=O)c1cc(Cl)c(-n2nc(Cl)c3cc(OCCc4ccccc4)ccc32)cc1F [Example 40, 5-chloro-4-(3-chloro-5-phenethoxy-1H-indazol-1-yl)-2-fluoro-N-(methylsulfonyl)benzamide] | 0.19 µM | – |
| CC(C)COc1ccc2c(cnn2-c2cc(F)c(C(=O)NS(C)(=O)=O)cc2Cl)c1 [Example 41, 5-chloro-2-fluoro-4-(5-isobutoxy-1H-indazol-1-yl)-N-(methylsulfonyl)benzamide] | 6.34 µM | – |
| CC(C)COc1ccc2c(c1)c(Cl)nn2-c1cc(F)c(C(=O)NS(C)(=O)=O)cc1Cl [Example 42, 5-chloro-4-(3-chloro-5-isobutoxy-1H-indazol-1-yl)-2-fluoro-N-(methylsulfonyl)benzamide] | 0.181 µM | – |
| CN(C)S(=O)(=O)NC(=O)c1cc(Cl)c(-n2nc(Cl)c3cc(OCc4ccccc4)ccc32)cc1F [Example 43, 4-(5-(benzyloxy)-3-chloro-1H-indazol-1-yl)-5-chloro-N—(N,N-dimethylsulfamoyl)-2-fluorobenzamide] | 0.2 µM | – |
| CS(=O)(=O)NC(=O)c1ccc(-n2nc(Cl)c3cc(OCc4ccccc4)ccc32)c(Cl)c1 [Example 44, 4-(5-(benzyloxy)-3-chloro-1H-indazol-1-yl)-3-chloro-N-(methylsulfonyl)benzamide] | 0.166 µM | – |
| CS(=O)(=O)NC(=O)c1cc(Cl)c(-n2nc(Cl)c3ccc(OCc4ccccc4)cc32)cc1F [Example 45, 4-(6-(benzyloxy)-3-chloro-1H-indazol-1-yl)-5-chloro-2-fluoro-N-(methylsulfonyl)benzamide] | 0.134 µM | – |
| COC(=O)c1nn(-c2cc(F)c(C(=O)NS(C)(=O)=O)cc2Cl)c2cc(OCc3ccccc3)ccc12 [Example 46, methyl 6-(benzyloxy)-1-(2-chloro-5-fluoro-4-((methylsulfonyl)carbamoyl)phenyl)-1H-indazole-3-carboxylate] | > 10 µM | – |

Now from value to molecule:

| IC50 [1] | IC50 | Structure (SMILES) |
| --- | --- | --- |
| 0.437 µM | – | CS(=O)(=O)NC(=O)c1cc(Cl)c(-n2nc(Cl)c3cc(Oc4ccc(F)nc4)ccc32)cc1F [Example 47, 5-chloro-4-(3-chloro-5-((6-fluoropyridin-3-yl)oxy)-1H-indazol-1-yl)-2-fluoro-N-(methylsulfonyl)benzamide] |
| 0.048 µM | – | CS(=O)(=O)NC(=O)c1cc(Cl)c(-n2nc(-c3ccccc3)c3cc(Cl)ccc32)cc1F [Example 48, 5-chloro-4-(5-chloro-3-phenyl-1H-indazol-1-yl)-2-fluoro-N-(methylsulfonyl)benzamide] |
| 2.22 µM | – | CS(=O)(=O)NC(=O)c1cc(Cl)c(-n2nc(-c3ccncc3)c3cc(Cl)ccc32)cc1F [Example 49, 5-chloro-4-(5-chloro-3-(pyridin-4-yl)-1H-indazol-1-yl)-2-fluoro-N-(methylsulfonyl)benzamide] |
| 0.913 µM | – | CS(=O)(=O)NC(=O)c1cc(Cl)c(-n2nc(-c3cccnc3)c3cc(Cl)ccc32)cc1F [Example 50, 5-chloro-4-(5-chloro-3-(pyridin-3-yl)-1H-indazol-1-yl)-2-fluoro-N-(methylsulfonyl)benzamide] |
| 0.187 µM | – | CS(=O)(=O)NC(=O)c1cc(Cl)c(-n2nc(-c3cncc(Cl)c3)c3cc(Cl)ccc32)cc1F [Example 51, 5-chloro-4-(5-chloro-3-(5-chloropyridin-3-yl)-1H-indazol-1-yl)-2-fluoro-N-(methylsulfonyl)benzamide] |
| – | 0.039 µM | Cc1cccc(-c2nn(-c3cc(F)c(C(=O)NS(C)(=O)=O)cc3Cl)c3ccc(Cl)cc23)c1 [Example 52, 5-chloro-4-(5-chloro-3-(m-tolyl)-1H-indazol-1-yl)-2-fluoro-N-(methylsulfonyl)benzamide] |
| 0.033 µM | – | CS(=O)(=O)NC(=O)c1cc(Cl)c(-n2nc(-c3ccccc3F)c3cc(Cl)ccc32)cc1F [Example 53, 5-chloro-4-(5-chloro-3-(2-fluorophenyl)-1H-indazol-1-yl)-2-fluoro-N-(methylsulfonyl)benzamide] |
| 0.026 µM | – | CS(=O)(=O)NC(=O)c1cc(Cl)c(-n2nc(-c3cccc(F)c3)c3cc(Cl)ccc32)cc1F [Example 54, 5-chloro-4-(5-chloro-3-(3-fluorophenyl)-1H-indazol-1-yl)-2-fluoro-N-(methylsulfonyl)benzamide] |
| 0.051 µM | – | CS(=O)(=O)NC(=O)c1cc(Cl)c(-n2nc(-c3ccc(F)cc3)c3cc(Cl)ccc32)cc1F [Example 55, 5-chloro-4-(5-chloro-3-(4-fluorophenyl)-1H-indazol-1-yl)-2-fluoro-N-(methylsulfonyl)benzamide] |
| 0.04 µM | – | CS(=O)(=O)NC(=O)c1cc(Cl)c(-n2nc(-c3ccc(F)cc3F)c3cc(Cl)ccc32)cc1F [Example 56, 5-chloro-4-(5-chloro-3-(2,4-difluorophenyl)-1H-indazol-1-yl)-2-fluoro-N-(methylsulfonyl)benzamide] |
| 0.123 µM | – | COc1ncccc1-c1nn(-c2cc(F)c(C(=O)NS(C)(=O)=O)cc2Cl)c2ccc(Cl)cc12 [Example 57, 5-chloro-4-(5-chloro-3-(2-methoxypyridin-3-yl)-1H-indazol-1-yl)-2-fluoro-N-(methylsulfonyl)benzamide] |
| 0.098 µM | – | COc1ccccc1-c1nn(-c2cc(F)c(C(=O)NS(C)(=O)=O)cc2Cl)c2ccc(Cl)cc12 [Example 58, 5-chloro-4-(5-chloro-3-(2-methoxyphenyl)-1H-indazol-1-yl)-2-fluoro-N-(methylsulfonyl)benzamide] |
| 0.108 µM | – | COc1ccc(-c2nn(-c3cc(F)c(C(=O)NS(C)(=O)=O)cc3Cl)c3ccc(Cl)cc23)cc1 [Example 59, 5-chloro-4-(5-chloro-3-(4-methoxyphenyl)-1H-indazol-1-yl)-2-fluoro-N-(methylsulfonyl)benzamide] |
| > 10 µM | – | CS(=O)(=O)NC(=O)c1cc(Cl)c(-n2nc(-c3ccccc3C#N)c3cc(Cl)ccc32)cc1F [Example 60, 5-chloro-4-(5-chloro-3-(2-cyanophenyl)-1H-indazol-1-yl)-2-fluoro-N-(methylsulfonyl)benzamide] |
| 0.096 µM | – | CS(=O)(=O)NC(=O)c1cc(Cl)c(-n2nc(-c3cccc(C#N)c3)c3cc(Cl)ccc32)cc1F [Example 61, 5-chloro-4-(5-chloro-3-(3-cyanophenyl)-1H-indazol-1-yl)-2-fluoro-N-(methylsulfonyl)benzamide] |
| 0.554 µM | – | CS(=O)(=O)NC(=O)c1cc(Cl)c(-n2nc(-c3ccc(C#N)cc3)c3cc(Cl)ccc32)cc1F [Example 62, 5-chloro-4-(5-chloro-3-(4-cyanophenyl)-1H-indazol-1-yl)-2-fluoro-N-(methylsulfonyl)benzamide] |
| 0.041 µM | – | CS(=O)(=O)NC(=O)c1cc(Cl)c(-n2nc(-c3ccccc3C(F)(F)F)c3cc(Cl)ccc32)cc1F [Example 63, 5-chloro-4-(5-chloro-3-(2-(trifluoromethyl)phenyl)-1H-indazol-1-yl)-2-fluoro-N-(methylsulfonyl)benzamide] |
| 0.094 µM | – | CS(=O)(=O)NC(=O)c1cc(Cl)c(-n2nc(-c3cccc(C(F)(F)F)c3)c3cc(Cl)ccc32)cc1F [Example 64, 5-chloro-4-(5-chloro-3-(3-(trifluoromethyl)phenyl)-1H-indazol-1-yl)-2-fluoro-N-(methylsulfonyl)benzamide] |
| 0.028 µM | – | CS(=O)(=O)NC(=O)c1cc(Cl)c(-n2nc(-c3ccc(C(F)(F)F)cc3)c3cc(Cl)ccc32)cc1F [Example 65, 5-chloro-4-(5-chloro-3-(4-(trifluoromethyl)phenyl)-1H-indazol-1-yl)-2-fluoro-N-(methylsulfonyl)benzamide] |
| 0.016 µM | – | CS(=O)(=O)NC(=O)c1cc(Cl)c(-n2nc(-c3ccc(Cl)cc3F)c3cc(Cl)ccc32)cc1F [Example 66, 5-chloro-4-(5-chloro-3-(4-chloro-2-fluorophenyl)-1H-indazol-1-yl)-2-fluoro-N-(methylsulfonyl)benzamide] |
